According to ChEMBL document CHEMBL1201862, “PubChem BioAssay data set” (2004):
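Values below derive from 48-hour exposures of cells grown in 96-well plates, with endpoints linearly interpolated between the two concentrations bracketing the appropriate inhibition level. The concentration for 50% growth inhibition is given as GI50.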 The source made the active and inactive calls. Rule as the data show it: active = GI50 up to about 1.1 µM and inactive = higher.

What was measured:
Test in all cases: NCI tumour cell line growth inhibition, 48 h
[1] = tested on: MDA-MB-435
[2] = tested on: SK-MEL-5
[3] = tested on: NCI-H23
[4] = tested on: OVCAR-5
[5] = tested on: SF-268
[6] = tested on: UACC-62
[7] = tested on: HCC 2998
[8] = tested on: SNB-19
[9] = tested on: NCI-H460
[10] = tested on: LOX IMVI
[11] = tested on: HCT-15
[12] = tested on: RXF 393
[13] = tested on: RPMI-8226
[14] = tested on: SW-620
[15] = tested on: A498
[16] = tested on: A549
[17] = tested on: SF-539
[18] = tested on: CCRF-CEM
[19] = tested on: NCI/ADR-RES
[20] = tested on: T47D
[21] = tested on: SNB-75
[22] = tested on: 786-0
[23] = tested on: EKVX
[24] = tested on: MDA-N
[25] = tested on: Malme-3M
[26] = tested on: ACHN
[27] = tested on: MDA-MB-231
[28] = tested on: OVCAR-8
[29] = tested on: OVCAR-4
[30] = tested on: HOP-62
[31] = tested on: SK-MEL-28
[32] = tested on: OVCAR-3
[33] = tested on: M14
[34] = tested on: NCI-H522
[35] = tested on: HT-29
[36] = tested on: U-251
[37] = tested on: MOLT-4
[38] = tested on: SK-MEL-2
[39] = tested on: K562
[40] = tested on: KM12
[41] = tested on: SF-295
[42] = tested on: BT-549
[43] = tested on: COLO 205
[44] = tested on: PC-3
[45] = tested on: HL-60
[46] = tested on: Hs-578T
[47] = tested on: SK-OV-3
[48] = tested on: SN12C
[49] = tested on: UACC-257
[50] = tested on: IGROV-1
[51] = tested on: CAKI-1
[52] = tested on: HCT-116
[53] = tested on: NCI-H226
[54] = tested on: SR
[55] = tested on: DU-145
[56] = tested on: TK-10
[57] = tested on: UO-31
[58] = tested on: MCF7
[59] = tested on: HOP-92

Compound: COc1cc(C)c(C2NC(=O)c3ccccc3N2)cc1C (stereo not given)
- GI50 [1]: 29.4 nM (active)
- GI50 [2]: 135 nM (active)
- GI50 [3]: 2510 nM (inactive)
- GI50 [4]: 750 nM (active)
- GI50 [5]: 518 nM (active)
- GI50 [6]: 201 nM (active)
- GI50 [7]: 1330 nM (inactive)
- GI50 [8]: 468 nM (active)
- GI50 [9]: 342 nM (active)
- GI50 [10]: 451 nM (active)
- GI50 [11]: 217 nM
- GI50 [12]: 358 nM (active)
- GI50 [13]: 93.1 nM (active)
- GI50 [14]: 303 nM (active)
- GI50 [15]: 312 nM (active)
- GI50 [16]: 596 nM (active)
- GI50 [17]: 229 nM (active)
- GI50 [18]: 352 nM (active)
- GI50 [19]: 149 nM (active)
- GI50 [20]: 447 nM (active)
- GI50 [21]: 54.3 nM (active)
- GI50 [22]: 417 nM (active)
- GI50 [23]: 1120 nM (inactive)
- GI50 [24]: 28.3 nM (active)
- GI50 [25]: 183 nM (active)
- GI50 [26]: 470 nM (active)
- GI50 [27]: 968 nM (active)
- GI50 [28]: 942 nM (active)
- GI50 [29]: 342 nM (active)
- GI50 [30]: 1360 nM (inactive)
- GI50 [31]: 590 nM (active)
- GI50 [32]: 127 nM (active)
- GI50 [33]: 316 nM (active)
- GI50 [34]: 254 nM (active)
- GI50 [35]: 321 nM (active)
- GI50 [36]: 396 nM (active)
- GI50 [37]: 1040 nM (active)
- GI50 [38]: 297 nM (active)
- GI50 [39]: 125 nM (active)
- GI50 [40]: 150 nM (active)
- GI50 [41]: 243 nM (active)
- GI50 [42]: 476 nM (active)
- GI50 [43]: 313 nM (active)
- GI50 [44]: 265 nM (active)
- GI50 [45]: 100 nM (active)
- GI50 [46]: 234 nM (active)
- GI50 [47]: 378 nM (active)
- GI50 [48]: 692 nM (active)
- GI50 [49]: 470 nM (active)
- GI50 [50]: 472 nM (active)
- GI50 [51]: 252 nM (active)
- GI50 [52]: 340 nM (active)
- GI50 [53]: 652 nM (active)
- GI50 [54]: 36.4 nM (active)
- GI50 [55]: 400 nM (active)
- GI50 [56]: 2280 nM (inactive)
- GI50 [57]: 468 nM (active)
- GI50 [58]: 957 nM (active)

Compound: Cc1cc2c(cc1C)C(=O)/C(=N/Nc1ccc(F)cc1)CCO2
- GI50 [1]: > 100000 nM (inactive)
- GI50 [2]: 95300 nM (inactive)
- GI50 [3]: > 100000 nM (inactive)
- GI50 [4]: > 100000 nM (inactive)
- GI50 [5]: > 100000 nM (inactive)
- GI50 [6]: > 100000 nM (inactive)
- GI50 [7]: > 100000 nM (inactive)
- GI50 [8]: > 100000 nM (inactive)
- GI50 [9]: > 100000 nM (inactive)
- GI50 [10]: 65800 nM (inactive)
- GI50 [11]: > 100000 nM
- GI50 [13]: > 100000 nM (inactive)
- GI50 [14]: > 100000 nM (inactive)
- GI50 [15]: > 100000 nM (inactive)
- GI50 [16]: > 100000 nM (inactive)
- GI50 [17]: > 100000 nM (inactive)
- GI50 [18]: > 100000 nM (inactive)
- GI50 [19]: > 100000 nM (inactive)
- GI50 [20]: 5040 nM (inactive)
- GI50 [59]: > 100000 nM (inactive)
- GI50 [22]: > 100000 nM (inactive)
- GI50 [23]: > 100000 nM (inactive)
- GI50 [24]: > 100000 nM (inactive)
- GI50 [25]: 37000 nM (inactive)
- GI50 [26]: > 100000 nM (inactive)
- GI50 [27]: > 100000 nM (inactive)
- GI50 [28]: > 100000 nM (inactive)
- GI50 [29]: > 100000 nM (inactive)
- GI50 [30]: > 100000 nM (inactive)
- GI50 [31]: > 100000 nM (inactive)
- GI50 [32]: > 100000 nM (inactive)
- GI50 [33]: 87500 nM (inactive)
- GI50 [34]: > 100000 nM (inactive)
- GI50 [35]: 24600 nM (inactive)
- GI50 [36]: > 100000 nM (inactive)
- GI50 [37]: > 100000 nM (inactive)
- GI50 [38]: 20400 nM (inactive)
- GI50 [39]: > 100000 nM (inactive)
- GI50 [40]: > 100000 nM (inactive)
- GI50 [41]: 27100 nM (inactive)
- GI50 [42]: > 100000 nM (inactive)
- GI50 [43]: > 100000 nM (inactive)
- GI50 [44]: > 100000 nM (inactive)
- GI50 [45]: 26400 nM (inactive)
- GI50 [46]: > 100000 nM (inactive)
- GI50 [47]: > 100000 nM (inactive)
- GI50 [48]: > 100000 nM (inactive)
- GI50 [49]: > 100000 nM (inactive)
- GI50 [50]: > 100000 nM (inactive)
- GI50 [51]: > 100000 nM (inactive)
- GI50 [52]: > 100000 nM (inactive)
- GI50 [53]: > 100000 nM (inactive)
- GI50 [54]: > 100000 nM (inactive)
- GI50 [55]: > 100000 nM (inactive)
- GI50 [56]: > 100000 nM (inactive)
- GI50 [57]: > 100000 nM (inactive)
- GI50 [58]: > 100000 nM (inactive)
